The test system of assay [1] is gray mold. Nature of the assay: Strawberry field test, incidence rate of gray mold. The assay is classed as in vivo, Botrytis cinerea. The conditions noted are these: foliar application of 2% amino acid; for incidence rate of gray mold (in words): 8 treatments, decreased in order of glutamic acid, proline, tryptophan; for incidence rate of gray mold: 8 treatments with interval of 2 weeks, non-treatment group 35%. As for the experimental part:
(§1) Specifically, the test was carried out with an interval of 2 weeks during the cultivation period of strawberry. Length of 5M was set as a single section and foliar application was performed for three sections. For each section, 100 strawberries were randomly selected and incidence rate of the disease was determined. As a treatment process, each amino acid was diluted to concentration of 2% in 15 liter distilled water, and the mixture (5 liter) was applied to each section. The treatment was carried out 8 times with an interval of 2 weeks.

Assay [2] relates to bloom blight. The assay can be described thus: Strawberry field test, incidence rate of bloom blight. It counts as in vivo, Cladosporium cladosporioides. The following applies: foliar application of 2% amino acid, 8 treatments with interval of 2 weeks, non-treatment group up to 50%. As for the experimental part: as §1
The test system of assay [3] is Streptomyces badius SP6C4 strain. The assay can be described thus: Amino acid preference of effective microorganism on Biolog PM3B nitrogen source plate (redox dye colour). The assay is classed as cell-based. The following applies: 72 hours at 28° C., then dye and culture at 37° C. for 24 and 48 hours, naked eye. The protocol:
Single colony of Streptomyces badius SP6C4 strain with deposit number of KCCM11703P was inoculated by streaking on MS medium (containing 20 g of mannitol, 20 g of soya, and 20 g of agar in 1 liter distilled water) and cultured for 7 days at 28° C. […] Thus-completed spore stock was diluted in sterile water, and, after adjusting the concentration to OD595 of 0.2±0.02, carrageenan stock (0.2% carrageenan and 50 mL distilled water) was prepared. The spore stock (1.5 mL) was admixed with 0.2% carrageenan stock (13.5 mL) and then the mixture (100 μl) was aliquoted onto a biolog plate (PM3B MICROPLATE™ Nitrogen Sources) followed by sealing the plate with a transparent film sheet. After 72 hours at 28° C., Redox dye mix MA (Biolog, Hayward, Calif.) was aliquoted to each well (10 μl per well) and sealed with a transparent film and a wrap to block the incorporation of CO2 from outside. Culture was carried out at 37° C. for 24 hours and 48 hours, respectively. […] Determination was made based on the assumption that stronger purple color corresponds to higher growth of the microorganism.

Assay [4] has the same test system. The assay can be described thus: Growth promotion of effective microorganism by amino acids (OD600). The assay is classed as cell-based. The following applies: fifth day of culture, 10 μl of amino acids at 2% added, 28° C.; basal medium control OD600 0.5. As for the experimental part:
To 10 μl of a spore stock of Streptomyces badius SP6C4 strain (10^5 cfu/mL), 80 μl of sterile water was added. After mixing with 10 μl of amino acids at concentration of 2%, the strain was cultured in a shaking incubator at a condition of 28° C. Growth of SP6C4 strain was examined by OD600 for 5 days with an interval of 24 hours.

Assay [5] shares this test system. The assay can be described thus: Maintenance of density of effective microorganism on strawberry flowers after amino acid treatment (qPCR of lanM gene). It counts as in vivo. The conditions noted are these: continuously maintained except the first treatment out of 8 treatments. As for the experimental part: To determine whether or not the density of effective microorganism is maintained even after a treatment of the amino acids, three strawberry flowers were collected, 3 times repeatedly, in each treatment period during which the test of inhibiting gray mold by the strawberry field test of Example 3 is carried out. After transfer to the lab under cold storage, 3 flowers were added to 30 mL of 1×PBS buffer and subjected to an ultrasonication treatment for 10 minutes. 3 mL of the supernatant was centrifuged for 10 minutes at a rate of 13,000 rpm, 1 mL of the resulting supernatant was discarded, and the pellet was dissolved in the remaining supernatant (2 mL). 500 μl of the mixture was admixed with 500 μl CTAB buffer followed by DNA purification. Each DNA was subjected to qPCR (quantitative polymerase chain reaction) by using lanM gene specific primers of Streptomyces badius SP6C4 strain (forward direction: 5′-gtacggatctgcaccacga-3′ (SEQ ID NO: 1), reverse direction: 5′-[…]-3′ (SEQ ID NO: 2)).

In assay [6] the test system is Fusarium oxysporum. Nature of the assay: Wilt disease control after coating tomato seeds with glutamic acid. It counts as in vivo. The conditions noted are these: tomato seeds coated with 2% glutamic acid and 0.1% CMC, then pathogen; Day 3 (Early time) and Day 10 (Late time); pathogen only about 50% and 100%. The protocol:
By using a concentrate of glutamic acid (20% (w/v)) and a concentrate of CMC (carboxyl methyl cellulose) (1% (w/v)) as a spreader, a mixture solution was prepared such that they have concentration of 2% and 0.1%, respectively. Forty to fifty tomato seeds of which surfaces have been sterilized with 70% (v/v) ethanol and 1% (v/v) sodium hypochlorite were added to 1 mL of the mixture solution and dried for 12 hours in a sterile bench at room temperature condition. After that, the coated seeds were planted to a square pot (3 cm×3 cm), 1 to 2 seeds per pot. Fusarium oxysporum spores as wilt pathogen were added in an amount of 3 mL with concentration of 10^5×1.0 CFU/mL. The treatment group obtained after completing pathogen inoculation to the seeds was transferred to a plant growth chamber which is set at 28° C. for 16 hours of light period and 25° C. for 8 hours of dark period. On Day 3 (Early time) and Day 10 (Late time) after transfer to a plant growth chamber, the incidence rate of wilt disease was examined. As a control, a non-treatment group and a group treated only with the pathogen were examined, each repeated 10 times.

Assay [7] concerns Fusarium oxysporum. The assay can be described thus: Wilt disease control after treating underground part of tomato plant with glutamic acid. The assay is classed as in vivo. The following applies: 2% glutamic acid solution 20 mL applied 2 times to tomato plant. As for the experimental part: To a tomato plant grown to have aboveground part of 8 to 10 cm, 2% glutamic acid solution was applied 2 times, in an amount of 20 mL with an interval of 5 days. […] A wound was created, by using a 5 mL tip, on the underground part of plant which has been treated twice with glutamic acid for 10 days, and then the spore suspension (10 mL) was applied to a pot with diameter of 9 cm. The plant inoculated with the pathogen was transferred to a plant growth chamber which is set at 28° C. for 16 hours of light period and 25° C. for 8 hours of dark period. Then, the incidence rate of disease was determined with an interval of 1 week. As a control, a group treated only with the pathogen and a plant not treated with any were tested, each repeated 5 times.

The values below come from patent publication US20220110331A1, “COMPOSITION FOR PROMOTING GROWTH OF EFFECTIVE MICROORGANISM AND CONTROLLING PLANT DISEASE USING PREBIOTICS, AND USE THEREOF” (priority 2018, published 2022).

For `N[C@@H](Cc1c[nH]c2ccccc12)C(=O)O` [tryptophan], the “incidence rate of gray mold (in words)” value in assay [1] is listed as “incidence rate has decreased”.
`NC(=O)C[C@H](N)C(=O)O` [asparagine, reference compound]: the “incidence rate of gray mold” value in assay [1] was “about 25%”. For the same molecule, the “incidence rate of bloom blight” value in assay [2] is “up to 40%”.
Take `N=C(N)NCCC[C@H](N)C(=O)O` [arginine]: the “color change with Redox dye (stronger purple color corresponds to higher growth of the microorganism)” value (“color change with Redox dye” below) in assay [3] is “darkest purple color”.
Consider `O=C(O)[C@@H]1CCCN1` [proline], for which the “incidence rate of gray mold (in words)” value in assay [1] is reported as “incidence rate has decreased”.
As to `C[C@H](N)C(=O)O` [alanine], in assay [3], the “color change with Redox dye” value is reported as “darkest purple color”.
On to `N[C@@H](CCC(=O)O)C(=O)O` [glutamic acid], for which the “color change with Redox dye” value in assay [3] was “darkest purple color”. The “OD600 (growth of SP6C4 strain)” value in assay [4] was determined as 1.8. Also, the “incidence rate of gray mold” value in assay [1] is “less than 15%”. Moreover, the “microorganism concentration (SP6C4 on strawberry flowers)” value in assay [5] is on record as ≥ 10^5 cfu/mL. The “incidence rate of wilt disease” value in assay [6] is on record as “wilt disease does not occur”. Moreover, the “incidence rate of disease (wilt)” value is on record as “no significant difference” in assay [7] (for 2 weeks after the initial pathogen treatment) and “less than 15%” in assay [7] (from the week 4, pathogen only 100%).
